Results on seven compounds are retold here after US9249153B2, “Pharmaceutical composition for treating aging-associated diseases, containing progerin expression inhibitor as active ingredient, and screening method of said progerin expression inhibitor” (PUSAN NATIONAL UNIVERSITY INDUSTRY-UNIVERSITY COOPERATION …, priority 2011, dated 2016).

For one test, the target named is T1, Prg-LMN A binding (Homo sapiens, UniProt P02545).
T1 sequence (P02545 515-614 isoform P02545-6 limits assumed): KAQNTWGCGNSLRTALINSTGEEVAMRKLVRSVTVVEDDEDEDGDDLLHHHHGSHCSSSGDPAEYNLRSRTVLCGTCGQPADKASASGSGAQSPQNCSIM
As to conditions: GST-pull down, cell lysate.

The target in a further test is T2, progerin-Lamin A binding (Homo sapiens, UniProt P02545).
T2 sequence (P02545 515-614 isoform P02545-6 limits assumed): T1 sequence (P02545 515-614 isoform P02545-6 limits assumed)
The experiment in a line: ELISA-based screening of LMN A-Prg binding inhibitors. As to conditions: 0.1 mM final concentration. On the procedure:
To isolate a Lamin A-Prg binding inhibitor, ELISA analysis was carried out. GST-progerin-C or LMN A-His was fixed with 0.5% paraformaldehyde on 96-well plates. After drying and washing steps, lysates of HEK 293 cells transfected with GFP-Lamin A, GST-Lamin A-C, or GST-progerin-C were incubated for 1 hr with a 0.1 mM (final concentration) binding inhibitor of the present invention. The 96-well plates were washed with TBST, followed by reaction with an anti-GFP-Ab (1:10,000, 45 min), an anti-GST-Ab (1:10,000, 45 min) and an anti-mouse-IgG-HRP (1:50,000, 30 min). The plates were washed twice, and incubated with a TMB solution (Calbiochem) and then with a stop solution (1 N H2SO4). Absorbance was read on an ELISA reader.
If progerin-induced senescence is mediated by binding LMN A, an inhibitor against binding between LMN A and progerin would block the progerin-induced pathological features. […] In this regard, an ELISA-based screening system was established. Briefly, progerin immobilized in 96-well plates was incubated with candidates from a chemical library, together with GFP-LMN A. Subsequently, association between progerin and the GFP protein was monitored in the presence of the inhibitor candidates (FIG. 15A). From the chemical library, four effective different compounds (JH-0307809; JH1, JH-02051109; JH13, JH-03070708; JH4, and LG-02-089-23; LG-02) were selected (FIGS. 15B and 16B), and analyzed by the monitoring (FIG. 16A). […] Their cytotoxicity was evaluated by MTT assay (FIGS. 15B and 16C).
(An ELISA detects its analyte on a solid surface through an enzyme-linked reagent.)

The target in a further test is LMN A-progerin binding (Homo sapiens, UniProt P02545). To be noted: in vitro binding assay.
For test [1], the system named is HGPS cells. The test can be described thus: nuclear LMN A/C staining in two kinds of HGPS cells. Format: cell-based, human. As to conditions: for nuclear deformation: two kinds of HGPS cells, incubation for 24 hrs.
For test [2], the system named is transcriptional activity of p53. The test can be described thus: p21-luc luciferase assay. It is filed as cell-based. To be noted: C2 cells, Adr treatment.
Protocol: To measure p21 activity, a p21-luc vector was co-transfected, together with si RNAs, to 293 cells for 24 hrs. The cells were washed and treated with adriamycin for 2 hrs. After they were washed with a wash buffer (Promega), the cells were lyzed in a lysis buffer. Luciferase activity was determined using a luminometer.
To confirm the re-activation of p53 in response to progerin knock down, the transcriptional activity of p53 was monitored using a p21-luc system.
The test system of test [3] is p53. The experiment in a line: p53 induction in human fibroblasts (normal, HGPS, WS). Format: cell-based. On the procedure: Whole cell lysates were prepared in RIPA buffer, and centrifuged at 14,000 rpm for 30 min. Twenty micrograms of cell extracts were separated by SDS-polyacrylamide gel electrophoresis and transferred onto a PVDF membrane. The membrane was incubated for 1 hr to overnight at 4° C. with an appropriated primary antibody, followed by reaction with a secondary antibody at room temperature for 1 hr. Peroxidase activity was detected by chemiluminescence with an ECL kit (Intron) as recommended by the manufacturer.
The molecular mechanism of the inhibitory activity of progerin against p53 was scrutinized and p53 responsibility to DNA damage was determined in human progeria cell lines (HGPS and WS). […] WS cells are known to be insensitive to DNA damage-induced p53 activation, and as previously observed, WS cells can also express progerin.
Keeping in mind the fact that p53 is tightly regulated by the MDM2 pathway, the engagement of progerin with MDM2-mediated p53 suppression was also tested by treatment of Nutlin-3, which is a blocker between MDM2 and p53 and induces p53 expression. […] Considering the results, the elevated expression of progerin would be involved in DNA damage-induced p53 activation and MDM2-mediaeted p53 suppression.

For test [4], the system named is p53. The experiment in a line: p53 expression and DNA damage response in RCC cell lines. It is filed as cell-based, human. To be noted: C2 and Caki-2 cell lines.
Protocol: In addition, p53 expression and responsibility for DNA damage in Caki-2 were determined after transfection with si-progerin.
The subject of test [5] is HGPS cells. The experiment in a line: cell counting, HGPS cells. It is filed as cell-based, human. The protocol:
(§1) For cell counting, cells were harvested from media, and stained for 10 min at room temperature with Trypan blue. Viable cells were counted using a hemocytometer.

Test [6] deals with association between LMN A and LMN B.
The next test has as its system normal fibroblasts. The test can be described thus: cell counting, normal fibroblasts. It is filed as cell-based, human. On the procedure: as §1
Test [7] deals with self association of LMN A (Homo sapiens, UniProt P02545).
In another test the test system is HGPS and normal cells. The test can be described thus: senescence-specific β-galactosidase staining (SA-β-Gal). It is filed as cell-based, human. The protocol:
For senescence-specific acidic-β-galactosidase activity staining, cells were washed once with PBS (pH 7.2) and fixed with PBS containing 0.5% glutaraldehyde. After being washed with PBS, the cells were stained overnight at 37° C. in an X-gal solution (Senescence β-Galactosidase Staining kit; Cell Signaling Technology).

For another test, the system named is RCC. The test can be described thus: nuclear irregularity of RCC (Example 2). Format: cell-based, human. On the procedure: Based on our observation that the nuclear irregularity of RCC is caused by progerin and improved by FTI, the JH compounds were also examined for effect on RCC. Like FTI, the JH compounds ameliorated nuclear irregularity (FIG. 25). […] They were tested in vivo.

self association of LMN A, sequence (P02545 whole entry): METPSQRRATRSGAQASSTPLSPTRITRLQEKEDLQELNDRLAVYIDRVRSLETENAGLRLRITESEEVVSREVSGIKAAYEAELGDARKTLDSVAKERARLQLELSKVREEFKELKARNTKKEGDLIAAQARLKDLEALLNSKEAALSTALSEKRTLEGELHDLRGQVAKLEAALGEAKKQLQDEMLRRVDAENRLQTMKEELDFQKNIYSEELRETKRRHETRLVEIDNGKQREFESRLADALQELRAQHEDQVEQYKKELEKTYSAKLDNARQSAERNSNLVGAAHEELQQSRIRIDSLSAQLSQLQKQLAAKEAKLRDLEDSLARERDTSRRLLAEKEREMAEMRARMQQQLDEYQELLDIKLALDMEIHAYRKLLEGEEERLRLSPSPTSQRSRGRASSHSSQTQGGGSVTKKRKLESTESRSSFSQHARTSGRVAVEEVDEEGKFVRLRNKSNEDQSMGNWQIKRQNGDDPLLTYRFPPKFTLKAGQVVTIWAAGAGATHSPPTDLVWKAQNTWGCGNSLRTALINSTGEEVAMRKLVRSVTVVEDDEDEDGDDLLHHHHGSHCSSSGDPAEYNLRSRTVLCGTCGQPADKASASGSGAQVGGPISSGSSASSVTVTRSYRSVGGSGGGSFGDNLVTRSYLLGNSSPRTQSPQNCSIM
Protocol for LMN A mutants: GFP-fused progerin and GFP-fused Lamin A expression vectors were kindly provided by Scaffidi and Misteli (NCI). GRP-fused Lamin B and Lamin C were granted from Lammerding J (Brigham and Women's Hospital/Harvard Medical School). A mutant of Lamin A was granted from Tesson F (University of Ottawa). A Myc-ARF vector and a non-tagged progerin vector were purchased from Addgene. For mammalian expression of these vectors, transfection was performed with the aid of Jetpei (Polyplus). In 150 nM NaCl solution, 1.5 μg of each vector was mixed with 1.5 μl of the Jetpei reagent. After incubation for 15 min at room temperature, the mixture was added to the cells. After 3 hrs, the 10% FBS medium was replaced by a serum-free medium.
Effects of the JH chemicals on LMN A mutants were investigated.
Protocol for Prg-LMN A binding: For the binding assay, GST-bead-fused Lamin A-C or progerin-C was incubated for 2 hrs at room temperature with a lysate of 293 cells transfected with the lamin A-N terminal region, or GFP-Lamin A, B or C. After washing twice with PBS and once with RIPA, the precipitates were collected, and subjected into SDS-PAGE and Western blot analysis with anti-GFP, His, and GST antibodies.
The candidates were examined for inhibitory activity against LMN A-progerin binding by an in vitro binding assay. […] Also, the compounds were analyzed for in vivo cellular effect by performing IP with a progerin antibody in HGPS fibroblasts after treatment with them for 24 hrs.

`CC1(C)Oc2cc3oc(=O)ccc3cc2C[C@@H]1OC(=O)C=Cc1ccc(O)c(O)c1` [JH13, (7S)-(+)-3-(3,4-Dihydroxy-phenyl)-acrylic acid, 8,8-dimethyl-2-oxo-6,7-dihydro-2H,8H-pyrano[3,2-g]chromen-7-yl-ester]: the “blocking of Prg-LMN A interaction” value at Prg-LMN A binding was “blocking ability of JH4 and JH13 was also demonstrated”. For the same compound, the “inhibition of association between immobilized progerin and GFP-LMN A (screening)” value (“inhibition” for short) on progerin-Lamin A binding is recorded as “effective”. In addition, on LMN A-progerin binding, the “inhibitory activity against LMN A-progerin binding” value was “block LMN A-progerin binding”. Besides, the nuclear deformation entry in the test with HGPS cells [1] is “ameliorated the nuclear deformation”.

Consider `COc1cccc2c1C(=O)c1c(O)c3c(c(O)c1C2=O)C[C@@](O)(C(=O)CO)C[C@@H]3O[C@H]1C[C@H](N)[C@H](O)[C@H](C)O1` [Adr, adriamycin], for which the “p21-luc expression / activation” value in test [2] was “did not increase p21-luc expression”. Moreover, the p53 induction result is on record as “did not show the induction of p53” in the test with p53 [3] (HGPS cells), “did not show the induction of p53” with p53 [3] (Werner syndrome (WS) cells) and “obviously increased” in the test with p53 [3] (normal cells).

Take `COc1ccc(C2=N[C@@H](c3ccc(Cl)cc3)[C@@H](c3ccc(Cl)cc3)N2C(=O)N2CCNC(=O)C2)c(OC(C)C)c1` [Nutlin-3]: the results for the p53 induction result with p53 [3] (HGPS cells), in the test with p53 [3] (normal cells) and in the test with p53 [4] were “partial response”, “induced p53 obviously” and “did not induce p53 obviously”, respectively.

In the case of `CC1(C)Oc2ccc3oc(=O)ccc3c2C[C@@H]1OC(=O)C=Cc1ccc(O)c(O)c1` [LG-02, (6S)-(−)-3-(3,4-Dihydroxy-phenyl)-acrylic acid, 7,7-dimethyl-2-oxo-5,6-dihydro-7H-pyrano[3,2-f]chromen-6-yl-ester], the “inhibition” value at progerin-Lamin A binding is reported as “effective”.

As for `CC1(C)Oc2cc3oc(=O)ccc3cc2C[C@@H]1OC(=O)CCc1ccc(O)c(O)c1` [JH1, (7S)-(+)-3-(3,4-Dihydroxyphenyl)propionic acid, 8,8-dimethyl-2-oxo-6,7-dihydro-2H,8H-pyrano[3,2-g]chromen-7-yl-ester], on progerin-Lamin A binding, the “inhibition” value is given as “effective”. The nuclear deformation entry with HGPS cells [1] was “ameliorated the nuclear deformation”.

For `CC1(C)Oc2cc3oc(=O)ccc3cc2C[C@@H]1OC(=O)C=Cc1cccnc1` [JH4, (7S)-(+)-3-(3-Pyridyl)-acrylic acid, 8,8-dimethyl-2-oxo-6,7-dihydro-2H,8H-pyrano[3,2-g]chromen-7-yl-ester], the values for the cell proliferation result in the test on HGPS cells [5] and with normal fibroblasts were “promoted cell proliferation” and “induced cell proliferation”, respectively. The “disruption of association between LMN A and LMN B” value in [6] is “did not disrupt”. Besides, the “inhibition” value on progerin-Lamin A binding is on record as “effective”. For the same compound, in test [7], the “disruption of self association of LMN A” value is “did not disrupt”. In addition, the “effect on LMN A mutants related with laminopathy” value in the test with LMN A mutants is “did not show a favorable effect”. The SA-β-gal entry with HGPS and normal cells is on record as “could suppress SA-β-gal”. Moreover, on LMN A-progerin binding, the “inhibitory activity against LMN A-progerin binding” value is recorded as “block LMN A-progerin binding”. The “nuclear deformation, effect relative to the other compounds” value in the test with HGPS cells [1] (HGPS cells (FIG. 17D)) was “more obvious effect than the other compounds”. The nuclear deformation entry in the test on HGPS cells [1] is “ameliorated the nuclear deformation”.

For `COC(=O)[C@H](CCSC)NC(=O)c1ccc(NC[C@@H](N)CS)cc1-c1ccccc1` [FTI], at Prg-LMN A binding, the “blocking of Prg-LMN A interaction” value is reported as “block the interaction, but slightly”. For the same compound, the “nuclear irregularity of RCC” value in the test with RCC was “improved”.
